# From publication PMC7785020, “A unique hormonal recognition feature of the human glucagon-like peptide-2 receptor” (Cell Research, 2020)
# Numbering of substitutions follows the chain as printed. Like-named read-outs stand apart in the source and are kept apart here. No end group written: not given here.
# How the values were obtained:
# Format in all cases: cell-based
# GLP-1R (WT) = GLP-1R (WT) (Homo sapiens, UniProt P43220); test: cAMP accumulation, WT GLP-1R; parameters: expressed in transfected cells; host or cells: HEK 293T; settings: Table S5, GLP-1R (WT), HEK 293T, 30 min, RT, mean ± SEM, n ≥ 3 in duplicate; for EC50: read-out: cAMP pEC50 (converted)
# GLP-2R Y252^ECL1A = target: T1, GLP-2R Y252^ECL1A (Homo sapiens, UniProt O95838, Y252A); test: cAMP accumulation, Y252^ECL1A; parameters: WT (1–553); expressed in transfected cells; HEK 293T (cAMP); settings: HEK 293T, 30 min, RT, mean ± SEM, n ≥ 3 in duplicate; for Emax: HEK-293T, read-out: cAMP Emax (% WT); for EC50: read-out: cAMP pEC50 (converted)
# T1 sequence (O95838 1-553 Y252A): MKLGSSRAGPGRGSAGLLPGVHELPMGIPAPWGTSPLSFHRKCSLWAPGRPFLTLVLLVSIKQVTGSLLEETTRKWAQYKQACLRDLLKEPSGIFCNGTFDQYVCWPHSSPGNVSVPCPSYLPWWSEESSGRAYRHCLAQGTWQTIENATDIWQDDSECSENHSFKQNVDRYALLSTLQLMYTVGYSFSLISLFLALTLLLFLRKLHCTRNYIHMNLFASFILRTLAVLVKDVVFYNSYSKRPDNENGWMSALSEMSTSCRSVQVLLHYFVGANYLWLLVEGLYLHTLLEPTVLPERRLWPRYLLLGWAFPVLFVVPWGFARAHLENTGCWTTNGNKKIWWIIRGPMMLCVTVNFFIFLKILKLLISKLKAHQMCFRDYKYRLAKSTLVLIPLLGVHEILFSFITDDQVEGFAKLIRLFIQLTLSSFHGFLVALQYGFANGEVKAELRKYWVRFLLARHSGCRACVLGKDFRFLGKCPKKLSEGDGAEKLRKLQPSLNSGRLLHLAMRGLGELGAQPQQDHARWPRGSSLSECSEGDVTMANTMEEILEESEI
# Description: (§1) They were seeded onto 6-well cell culture plates and transiently transfected with different GLP-2R constructs using Lipofectamine 2000 transfection reagent (Invitrogen, Carlsbad, CA, USA). After 24 h, the transfected cells were seeded onto 384-well microtiter plates (3000 cells per well) in HBSS supplemented with 5 mM HEPES, 0.1% (w/v) bovine serum albumin (BSA) and 0.5 mM 3-isobutyl-1- methylxanthine, and stimulated with increasing concentrations of GLP-2 for 30 min at RT. Eu and Ulight were diluted by cAMP detection buffer and added to the plates separately to terminate the reaction. Plates were incubated at RT for 60 min before measuring the fluorescence intensity at 620 nm and […] by an EnVision multilabel plate reader (PerkinElmer, Boston, USA).
# GLP-2R W249^ECL1A = target: T2, GLP-2R W249^ECL1A (Homo sapiens, UniProt O95838, W249A); test: cAMP accumulation, W249^ECL1A; parameters: WT (1–553); expressed in transfected cells; HEK 293T (cAMP); settings: HEK 293T, 30 min, RT, mean ± SEM, n ≥ 3 in duplicate; for EC50: read-out: cAMP pEC50 (converted); for Emax: HEK-293T, read-out: cAMP Emax (% WT)
# T2 sequence (O95838 1-553 W249A): T1 sequence (O95838 1-553 Y252A) with W249A, A252Y
# Description: as §1
# Chain of GLP-1R (WT) (P43220 24-463, species assumed): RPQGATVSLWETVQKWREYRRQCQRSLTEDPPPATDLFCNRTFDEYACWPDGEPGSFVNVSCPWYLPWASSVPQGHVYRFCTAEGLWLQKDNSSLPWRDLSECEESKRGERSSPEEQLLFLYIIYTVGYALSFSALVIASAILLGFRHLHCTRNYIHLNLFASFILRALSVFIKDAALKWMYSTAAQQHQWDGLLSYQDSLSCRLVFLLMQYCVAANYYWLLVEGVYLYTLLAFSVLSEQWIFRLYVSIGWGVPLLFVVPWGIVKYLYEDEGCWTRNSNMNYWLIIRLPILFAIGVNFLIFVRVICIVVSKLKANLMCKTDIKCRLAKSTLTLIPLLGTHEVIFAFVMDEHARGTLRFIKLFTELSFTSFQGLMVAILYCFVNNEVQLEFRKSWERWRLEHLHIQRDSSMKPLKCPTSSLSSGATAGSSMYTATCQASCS
Compound,Emax (GLP-1R (WT)),EC50 (GLP-1R (WT)),"Emax (GLP-2R Y252^ECL1A; Table S5, Y252A)","EC50 (GLP-2R Y252^ECL1A; Table S5, Y252A)","EC50 (GLP-2R W249^ECL1A; Table S5, W249A)","Emax (GLP-2R W249^ECL1A; Table S3, W249A)","Emax (GLP-2R W249^ECL1A; Table S5, W249A)","Emax (GLP-2R Y252^ECL1A; Table S3, Y252A)"
HADGSFTSDVSSYLEGQAARDFINWLIQTKITD [Chimeric GLP-1/GLP-2 (7-19)],105 ± 2.4%,0.0126 nM,106 ± 5.1%,50.1 nM,,,,
HADGSFSDEMNTILDNLAAKEFIAWLVKGRG [Chimeric GLP-1/GLP-2 (20-33)],112 ± 2.8%,3.16 nM,104 ± 2.1%,3.98 nM,6310 nM,,,
CC[C@H](C)[C@H](NC(=O)[C@H](Cc1ccccc1)NC(=O)[C@H](CC(=O)O)NC(=O)[C@H](CCCNC(=N)N)NC(=O)[C@H](C)NC(=O)[C@H](C)NC(=O)[C@H](CC(C)C)NC(=O)[C@H](CC(N)=O)NC(=O)[C@H](CC(=O)O)NC(=O)[C@H](CC(C)C)NC(=O)[C@@H](NC(=O)[C@@H](NC(=O)[C@H](CC(N)=O)NC(=O)[C@H](CCSC)NC(=O)[C@H](CCC(=O)O)NC(=O)[C@H](CC(=O)O)NC(=O)[C@H](CO)NC(=O)[C@H](Cc1ccccc1)NC(=O)[C@H](CO)NC(=O)CNC(=O)[C@H](CC(=O)O)NC(=O)[C@H](C)NC(=O)[C@@H](N)Cc1c[nH]cn1)[C@@H](C)O)[C@@H](C)CC)C(=O)N[C@@H](CC(N)=O)C(=O)N[C@@H](Cc1c[nH]c2ccccc12)C(=O)N[C@@H](CC(C)C)C(=O)N[C@H](C(=O)N[C@@H](CCC(N)=O)C(=O)N[C@H](C(=O)N[C@@H](CCCCN)C(=O)N[C@H](C(=O)N[C@H](C(=O)N[C@@H](CC(=O)O)C(=O)O)[C@@H](C)O)[C@@H](C)CC)[C@@H](C)O)[C@@H](C)CC [Human GLP-2 (1–33)],4 ± 3.1%,5.01 nM,102 ± 2.2%,,,128 ± 162%,113 ± 4.1%,103 ± 2.6%
HAEGTFSDEMNTILDNLAARDFINWLIQTKITD [Chimeric GLP-1/GLP-2 (1-6)],7.1 ± 3.2%,7.94 nM,103 ± 3.1%,6.31 nM,1260 nM,,,
